Read-outs that look alike come from different tables or passages of the source.
Columns and labels:
[1] = system: Mycosphaerella graminicola; anamorph: Septoria tritici; Bayer code SEPTTR; experiment: Fungicidal activity: leaf blotch of wheat, greenhouse wheat plants (variety Yuma), percent disease control; format: in vivo; settings: Zymoseptoria tritici, 100 ppm, wheat plants
Description: Evaluation of Fungicidal Activity: Leaf Blotch of Wheat (Mycosphaerella graminicola; anamorph: Septoria tritici; Bayer code SEPTTR)
Wheat plants (variety Yuma) were grown from seed in a greenhouse in 50% mineral soil/50% soil-less Metro mix until the first leaf was fully emerged, with 7-10 seedlings per pot. These plants were inoculated with an aqueous spore suspension of Septoria tritici either prior to or after fungicide treatments. After inoculation the plants were kept in 100% relative humidity (one day in a dark dew chamber followed by two to three days in a lighted dew chamber) to permit spores to germinate and infect the leaf. The plants were then transferred to a greenhouse for disease to develop.
The effectiveness of the test compounds in controlling disease was determined by assessing the severity of disease on treated plants, then converting the severity to percent control based on the level of disease on untreated, inoculated plants. • In each case of Table II the rating scale is as follows: […]

## CN(C)/C=N/c1nc(=O)n(-c2ccsc2)cc1F [Compound 56, (E)-N′-(5-fluoro-2-oxo-1-(thiophen-3-yl)-1,2-dihydropyrimidin-4-yl)-N,N-dimethylformimidamide]
[1]; 24 h, One-Day Protectant (1DP), read-out: SEPTTR 100 PPM 1DP (% Disease Control rating)
  pest or weed control at 100 ppm: 26 to 50%
[1]; 72 h, Three-Day Curative (3DC), read-out: SEPTTR 100 PPM 3DC (% Disease Control rating)
  pest or weed control at 100 ppm: 51 to 75%
other
  melting point: 211 to 213 °C

From patent US8916579B2, “5-fluoropyrimidinone derivatives” (Dow AgroSciences, LLC., priority 2009, dated 2014)
